Laboratory results published in US11064704B2, “Natural product formulations with improved residual insect repellent/deterrent activity” (University of Mississippi, priority 2016, dated 2021).

Experiments:
mosquitoes = assay: in vivo direct skin application bioassay
Procedure: Direct skin application bioassays were conducted by using a powder-free latex glove (Diamond Grip, Microflex Corporation, Reno, Nev.). An opening of 3×4 cm was cut through the glove to fit on dorsal surface of the hand (FIG. 1). After wearing the glove, a wristband was used to avoid the biting on the hand near the border of the glove. Approximately, 500 (±5%), consisting primarily of females were transferred to a test cage (45×45×45 cm) using an aspirator. A series of dosages were tested to determine MED for repellency as well as residual activity against mosquitoes. A single test consisted of covering the hand of a volunteer with a powder-free latex glove and treating 12 cm^2 surface area, cut through the glove, on dorsal surface of the hand. Marked skin surface area was treated with the test compound in 50 μl of total volume. Because of constrain of man power, only one volunteer who was provided with a written informed consent participated in this study. A protocol approved by the University of Mississippi Human Use Institutional Review Board (IRB protocol #15-070) was followed.
The test started when the hand treated (3×4 cm area cut through the glove on the dorsal surface) with a test compound was inserted into the mosquito cage. […] Any treatment with […] females biting during 1 min test period was considered as “passed” whereas a treatment with ≥5 bites out of 500 mosquitoes was considered as “failed”. In case of passing the next lower and in case of failure next higher serial dose was tested to reach MED. Additionally, data on the residual repellent activity was recorded by exposing the treatments to the females after every 30 minutes until the treatment failed. Carrot essential oil, carotol and DEET and the mixtures were tested.
Direct skin application bioassays were conducted by using a powder-free latex glove (Diamond Grip™, Microflex Corporation, Reno, Nev.). An opening of 3×4 cm was cut through the glove to fit on the dorsal surface of the hand. After donning the glove, a wristband was used to avoid biting on the hand near the border of the glove. Approximately 500 (±5%) mosquitoes, consisting primarily of females, were transferred to a test cage (45×45×45 cm) using an aspirator. A series of dosages were tested to determine MED for repellency as well as residual activity against mosquitoes.
A single test consisted of covering the hand of a volunteer with a powder-free latex glove and treating a 12 cm^2 surface area, cut through the glove, on the dorsal surface of the hand. Marked skin surface area was treated with the test compound in 50 μl of total volume. Because of constraints of man power, only one volunteer who was provided with a written informed consent participated in this study. A protocol approved by the University of Mississippi Human Use Institutional Review Board (IRB Protocol #15-070) was followed.
The test started when the hand treated (3×4 cm area cut through the glove on the dorsal surface) with a test compound was inserted into the mosquito cage. […] Any treatment with ≤5 females biting during the 1 min test period was considered as “passed”, whereas a treatment with ≥5 bites out of 500 mosquitoes was considered as “failed”. In case of passing, the next lower, and in case of failure, the next higher, serial dose was tested to reach MED. Additionally, data on the residual repellent activity were recorded by exposing the treatments to the females after every 30 minutes until the treatment failed. Carrot seed essential oil, carotol, geranium and lemon Eucalyptus essential oils, DEET, picaridin and the mixtures were tested.

Aedes aegypti females [1] = assay: in vitro A&K (Ali and Khan) repellent bioassay; type: in vivo; conditions: for residual repellent activity: time post treatment within range of MED: 11.7 μg/cm^2; for residual repellent activity: time post treatment up to which active / after which MED limit crossed: 23.4 μg/cm^2
Description: The A&K (Ali and Khan) bioassay system is based on the concept that the mosquitoes are attracted to warm temperatures, and this system uses warm temperature to serve as stimulus for landing and feeding. The details of the A&K bioassay systems are given in Ali et al. (2017).
In summary, this in vitro system consisted of a 30×30×30 cm collapsible aluminum cage (Model 1450B, BioQuip Products, 2321 Gladwick Street, Rancho Dominguez, Calif. 90220, USA) with metal screens. On one panel of the cage, metal screen was replaced with a clear acrylic transparent sheet. […] The blood box had three sides covered with acrylic sheet while the front side was open to insert the feeding device. […] The sliding door served to contain the females inside the cage when the feeding device was pulled out for loading the treatment. This door was slid open when the feeding device was pushed in during the bioassay to expose the females to the treatment.
The feeding device had one 3×4 cm rectangular reservoir that contained the feeding solution. The feeding device was connected to the water circulator. The reservoir of the feeding device with feeding solution was covered with a chemical treated collagen sheet. To observe the landing and feeding of female mosquitoes, feeding solution in the reservoir was heated to match the human body temperature using a water circulator which was set at 37° C. The feeding solution had 3-4° C. higher temperature than the solid platform, and this increased temperature of the feeding solution became a better source of attraction and preference for the mosquitoes than the other parts of the feeding device.
The rectangular reservoir of the feeding device was filled with the CPDA 1+ATP solution having a few drops of green fluorescent traceable water-soluble dye to serve as a feeding source. A test was started when the 3×4 cm marked areas of collagen were treated with the desired chemical in a volume of 50 μL/[…]. The treated collagen sheet was then secured on the reservoir using a thin layer of high vacuum grease (Dow Corning Corporation, Midland, Mich. 48686). The feeding device was then pushed into the blood box and the sliding door was opened to expose females to the treatment.
Stock solutions were made in ethanol. All the dilutions were made in EtOH and applied in a volume of 50 μL covering […] of the collagen sheet. Minimum effective dosage (MED) values in this in vitro bioassay were determined using a method described by Katritzky et al. (2010).
The cage contained 200±10, 8-18 day old female mosquitoes. The number of mosquitoes landing and biting were recorded visually for 1 minute. Three or four cages were used at a time, and one treatment was evaluated in a single cage. The minimum dose at which 2 or less mosquitoes (i.e. less than or equal to 1% of 200 females in the cage) started feeding in 1 minute was the minimum effective dose (“MED”). Continuous exposure of the mosquitoes in the cage can result in reduced landing and biting, therefore, 3-4 cages were used and only one replication was completed for each chemical in a single cage. To ensure accuracy of the treatment, rectangular areas of (3×4 cm (12 cm^2) or 7.5×4 cm (30 cm^2) were marked on the collagen that matched the measurement of the rectangular liquid reservoirs. Treatments were applied in a volume of 50 μL (12 cm^2 area) or 107 μL (30 cm^2 area). Treated collagen sheets were secured on a feeding reservoir containing CPDA-1+ATP solution using a thin layer of grease (Dow Corning Corp, Midland, Mich.). The feeding device was pushed inside the blood box and the sliding door was […] to expose the females to the treatment.
To ensure the normal activity (≥10% landing), control treatment was repeated after every 5 replications, and the bioassay was stopped if the response was less than the control. The data is presented as MED values with the mean percentage biting (±SEM) in parenthesis. […]

Aedes aegypti females [2] = conditions: literature values; cited from earlier work
[3] = 12 cm^2 surface area, Table 7/FIG. 7
[4] = Table 13/FIG. 13, mixtures 6.25+6.25 μg/cm^2 versus individual applications, species not given

Row | Compound | residual activity: time post application at which MED level crossed (mosquitoes; 1% rate of application) | residual activity: time post application at which MED level crossed (mosquitoes; 2% rate of application) | residual repellent activity: time post treatment within range of MED (Aedes aegypti females [1]) | residual repellent activity: time post treatment up to which active / after which MED limit crossed (Aedes aegypti females [1]) | minimum effective dose (MED) (Aedes aegypti females [1]; [3]) | minimum effective dose (MED) (Aedes aegypti females [1]; [4]) | MED values reported by Ali et al. (2012) and Katritzky et al. (2010) (Aedes aegypti females [2]) | residual activity: time post application at which MED reached (mosquitoes; 8% application rate) | residual activity: time post application at which MED reached/crossed (mosquitoes; 12.5% application rate) | residual activity: time post application at which MED reached (mosquitoes; 25% application rate) | residual activity: time post application at which MED reached (mosquitoes; 50% application rate) | residual repellent activity: time post treatment up to which active (Aedes aegypti females [1]; 46.9 μg/cm^2) | repellent activity (Aedes aegypti females [1]; compared with DEET)
1 | CCN(CC)C(=O)c1cccc(C)c1 [DEET, N,N-diethyl-meta-toluamide, reference compound] | 1 h | 1 h | 30 min | 120 min | 11.7 μg/cm^2 | 25 μg/cm^2 | 9 μg/cm^2 |  |  |  |  |  | 
2 | CC1=CC[C@]2(C)CC[C@@H](C(C)C)[C@]2(O)CC1 [carotol] |  |  | failed | 60 min | 11.7 μg/cm^2 | 25 μg/cm^2 |  | 1.5 h | 1.5 h | 2 h | 2.5 h | 120 min | comparable to DEET
